Experimental findings from patent EP2209789B1, “C[…] INDOLOB[…] NS5B INHIBITORS” (Bristol-Myers Squibb Company, priority 2007, dated 2009) are described below.

SMILES strings stand for the structures.

One assay deals with HCV replicon. In words: HCV replicon FRET / luciferase assay. The format is cell-based. The protocol:
FRET Assay Preparation. The HCV FRET screening assay was performed in 96-well cell culture plates. The FRET peptide (Anaspec, Inc.) (Taliani et al., Anal. Biochem. 1996, 240, 60-67) contains a fluorescence donor, EDANS, near one end of the peptide and an acceptor, DABCYL, near the other end. The fluorescence of the peptide is quenched by […] resonance energy transfer (RET) between the donor and the acceptor, but as the NS3 protease cleaves the peptide the products are released from RET quenching and the fluorescence of the donor becomes apparent. The assay reagent was made as follows: 5X cell Luciferase cell culture lysis reagent from Promega (#E153A) diluted to 1X with dH2O, NaCl added to 150 mM final, the FRET peptide diluted to 20 µM final from a 2 mM stock.
To prepare plates, HCV replicon cells, with or without a Renilla luciferase reporter gene, were trypsinized and plated in a 96-well plate with titrated test compounds added in columns 3 through 12; columns 1 and 2 contained a control compound (HCV control inhibitor), and the bottom row contained cells with DMSO only. The plates were then placed in a CO2 incubator at 37 °C.
Assays. Subsequent to addition of the test compounds described above (FRET Assay Preparation), at various times the plate was removed and Alamar blue solution (Trek Diagnostics, #00-100) was added to measure cellular toxicity. After reading in a Cytoflour 4000 instrument (PE Biosystems), plates were rinsed with PBS and then used for FRET assay by the addition of 30 ul of the FRET peptide assay reagent described above (FRET Assay Preparation) per well. The plate was then placed into the Cytoflour 4000 instrument which had been set to 340 excite/490 emission, automatic mode for up to 20 cycles and the plate read in a kinetic mode. Typically, the signal to noise using an endpoint analysis after the reads was at least three-fold. Alternatively, after Alamar blue reading, plates were rinsed with PBS, then used for luciferase assay using the Promega Dual-Glo Luciferase Assay System or the Promega EnduRen Live Cell Substrate assay.
Compound analysis was performed by quantification of the relative HCV replicon inhibition and the relative cytotoxicity values. To calculate cytoxicity values, the average Alamar Blue fluorescence signals from the control wells were set as 100% non-toxic. The individual signals in each of the compound test wells were then divided by the average control signal and multiplied by 100% to determine […]. To calculate the HCV replicon inhibition values, an average background value was obtained from the two wells containing the highest amount of HCV control inhibitor at the end of the assay period. These numbers were similar to those obtained from naïve Huh-7 cells. The background numbers were then subtracted from the average signal obtained from the control wells and this number was used as 100% activity. The individual signals in each of the compound test wells were then divided by the averaged control values after background subtraction and multiplied by 100% to determine percent activity. […] The two numbers generated for the compound plate, percent cytoxicity and percent activity, were used to determine compounds of interest for further analysis.

A further assay has as its target T1, HCV NS5B (Hepatitis C virus genotype 1b, UniProt Q9WMX2).
T1 construct: The cDNA encoding the NS5B protein of HCV, genotype 1b; made in house; host or cells: E. coli BL21(DE3)
In words: HCV NS5B RdRp enzyme assay (standard or modified). It is filed as biochemical. As to conditions: HCV RdRp genotype 1b enzyme; not stated whether standard or modified assay. The protocol: HCV NS5B RdRp cloning, expression, and purification. The cDNA encoding the NS5B protein of HCV, genotype 1b, was cloned into the pET21a expression vector. The protein was expressed with an 18 amino acid C-terminal truncation to enhance the solubility. The E. coli competent cell line BL21(DE3) was used for expression of the protein. Cultures were grown at 37 °C for ~ 4 hours until the cultures reached an optical density of 2.0 at 600 nm. The cultures were cooled to 20 °C and induced with 1 mM IPTG. Fresh ampicillin was added to a final concentration of 50 µg/ml and the cells were grown overnight at 20 °C.
The lysis buffer consisted of 20 mM Tris-HCl, pH 7.4, 500 mM NaCl, 0.5% triton X-100, 1 mM DTT, 1 mM EDTA, 20% glycerol, 0.5 mg/ml lysozyme, 10 mM MgCl2, 15 ug/ml deoxyribonuclease I, and Complete TM protease inhibitor tablets (Roche). After addition of the lysis buffer, frozen cell pellets were resuspended using a tissue homogenizer. To reduce the viscosity of the sample, aliquots of the lysate were sonicated on ice using a microtip attached to a Branson sonicator. The sonicated lysate was centrifuged at 100,000 x g for Ihr at 4 °C and filtered through a 0.2 µm filter unit (Coming).
The protein was purified using two sequential chromatography steps: Heparin sepharose CL-6B and polyU sepharose 4B (Pharmacia). The chromatography buffers were identical to the lysis buffer but contained no lysozyme, deoxyribonuclease I, MgCl2 or protease inhibitor and the NaCl concentration of the buffer was adjusted according to the requirements for charging the protein onto the column. Each column was eluted with a NaCl gradient which varied in length from 5-50 column volumes depending on the column type. […] The enzyme was aliquoted and stored at -80 °C.
Standard HCV NSSB RdRp enzyme assay. HCV RdRp genotype 1b assays were run in a final volume of 60 µl in 96 well plates (Coming 3600). The assay buffer is composed of 20 mM Hepes, pH 7.5, 2.5 mM KCl, 2.5 mM MgCl2, 1 mM DTT, 1.6 U RNAse inhibitor (Promega N2515), 0.01 mg/ml BSA (Sigma B6917), and 2 % glycerol. All compounds were serially diluted (3-fold) in DMSO and diluted further in water such that the final concentration of DMSO in the assay was 2%. HCV RdRp genotype 1b enzyme was used at a final concentration of 28 nM. A polyA template was used at 6 nM, and a biotinylated oligo-dT12 primer was used at 180 nM final concentration. Template was obtained commercially (Amersham 27-4110). Biotinylated primer was prepared by Sigma Genosys. 3H-UTP was used at 0.6 µCi (0.29 µM total UTP). Reactions were initiated by the addition of enzyme, incubated at 30 °C for 60 min, and stopped by adding 25 µl of 50 mM EDTA containing SPA beads (4 µg/µl, Amersham RPNQ 0007). Plates were read on a Packard Top Count NXT after >1hr incubation at room temperature.
Modified HCV NS5B RdRp enzyme assay. A modified enzyme assay was performed essentially as described for the standard enzyme assay except for the following: The biotinylated oligo dT12 primer was precaptured on streptavidin-coated SPA beads by mixing primer and beads in assay buffer and incubating at room temperature for one hour. Unbound primer was removed after centrifugation. The primer-bound beads were resuspended in 20 mM Hepes buffer, pH 7.5 and used in the assay at final concentrations of 20 nM primer and 0.67 µg/µl beads. Order of addition in the assay: enzyme (1.75 nM) was added to diluted compound followed by the addition of a mixture of template (0.36 nM), 3H-UTP (0.6 µCi, 0.29 µM), and primer-bound beads, to initiate the reaction; concentrations given are final. Reactions were allowed to proceed for 4 hours at 30° C.
IC50 values for compounds were determined using seven different [I].

The mark [1] stands for this setting: HCV replicon cells, 50% reduction in FRET or luciferase activity.

T1 sequence (Q9WMX2 2420-2992): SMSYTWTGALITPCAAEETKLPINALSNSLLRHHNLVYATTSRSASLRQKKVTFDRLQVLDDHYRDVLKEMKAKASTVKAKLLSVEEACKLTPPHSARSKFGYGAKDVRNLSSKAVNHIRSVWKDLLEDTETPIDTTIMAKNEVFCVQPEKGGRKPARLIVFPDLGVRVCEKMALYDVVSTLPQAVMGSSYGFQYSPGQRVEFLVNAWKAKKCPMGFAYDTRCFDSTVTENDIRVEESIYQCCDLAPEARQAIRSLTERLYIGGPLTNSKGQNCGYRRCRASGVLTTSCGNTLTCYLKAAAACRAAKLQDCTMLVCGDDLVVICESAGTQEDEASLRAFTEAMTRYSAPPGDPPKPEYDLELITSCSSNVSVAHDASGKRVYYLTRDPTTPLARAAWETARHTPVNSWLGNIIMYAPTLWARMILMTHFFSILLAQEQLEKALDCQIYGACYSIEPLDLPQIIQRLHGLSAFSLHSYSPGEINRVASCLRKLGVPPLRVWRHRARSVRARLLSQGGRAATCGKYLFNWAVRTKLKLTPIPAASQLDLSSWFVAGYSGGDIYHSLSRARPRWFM

Turning to `CCN(CC)C(=O)N1CC2CCC(C1)N2C(=O)C12CC1c1cc(OC)ccc1-c1c(C3CCCCC3)c3ccc(C(=O)NS(=O)(=O)C4CC4)cc3n1C2` (stereo not shown), in the assay on HCV replicon (Hepatitis C virus), the half-maximal effective concentration (EC50) is 1 to 500 nM.

Regarding `CCN(CC)C(=O)N1CC2CCC(C1)N2C(=O)C12CC1c1cc(OC)ccc1-c1c(C3CCCCC3)c3ccc(C(=O)NS(=O)(=O)N4CCN(C)CC4)cc3n1C2` (stereo not shown), the 50% effective concentration (EC50) in the assay on HCV replicon (Hepatitis C virus) fell in the range of 1 to 500 nM.

In the assay with HCV replicon (Hepatitis C virus), `COc1ccc2c(c1)[C@H]1C[C@@]1(C(=O)N1C3CCC1CN(C)C3)Cn1c-2c(C2CCCCC2)c2ccc(C(=O)NS(=O)(=O)C(C)C)cc21` had an EC50 of 1 to 500 nM.

Regarding `COc1ccc2c(c1)C1CC1(C(=O)N1C3CCC1CN(C)C3)Cn1c-2c(C2CCCCC2)c2ccc(C(=O)NS(=O)(=O)C(C)C)cc21` (stereo not shown), the concentration giving a half-maximal response (EC50) in the assay on HCV replicon (Hepatitis C virus) fell in the range of 1 to 500 nM.

`COc1ccc2c(c1)C1CC1(C(=O)N1C3CCC1CN(C)C3)Cn1c-2c(C2CCCCC2)c2ccc(C(=O)NS(=O)(=O)C3CCCC3)cc21` (stereo not shown) had an EC50 in the assay with HCV replicon (Hepatitis C virus) of 1 to 500 nM. Moreover, the half-inhibitory concentration (IC50) against HCV NS5B lay within 1 to 500 nM.

With `COc1ccc2c(c1)C1CC1(C(=O)N1C3CCC1CN(C)C3)Cn1c-2c(C2CCCCC2)c2ccc(C(=O)NS(=O)(=O)C3CCCCC3)cc21` (stereo not shown), the concentration for a half-maximal effect (EC50) with HCV replicon (Hepatitis C virus) is 1 to 500 nM.

Regarding `COc1ccc2c(c1)C1CC1(C(=O)N1C3CCC1CN(C)C3)Cn1c-2c(C2CCCCC2)c2ccc(C(=O)NS(=O)(=O)CC(C)C)cc21` (stereo not shown), the half-maximal effective concentration (EC50) in the assay with HCV replicon (Hepatitis C virus) lay within 1 to 500 nM. Further, the IC50 against HCV NS5B was 1 to 500 nM.

In turn, `CCCS(=O)(=O)NC(=O)c1ccc2c(C3CCCCC3)c3n(c2c1)CC1(C(=O)N2C4CCC2CN(C)C4)CC1c1cc(OC)ccc1-3` (stereo not shown) came in with a concentration for a half-maximal effect (EC50) in the assay with HCV replicon (Hepatitis C virus) of 1 to 500 nM. Besides, the half-inhibitory concentration (IC50) against HCV NS5B fell in the range of 1 to 500 nM.

Consider `COc1ccc2c(c1)C1CC1(C(=O)N1C3CCC1CN(C)C3)Cn1c-2c(C2CCCCC2)c2ccc(C(=O)NS(=O)(=O)C(C)(C)C)cc21` (stereo not shown), for which the EC50 in the assay on HCV replicon (Hepatitis C virus) is 1 to 500 nM. In addition, at HCV NS5B, the IC50 lay within 1 to 500 nM.

`CCCCS(=O)(=O)NC(=O)c1ccc2c(C3CCCCC3)c3n(c2c1)CC1(C(=O)N2C4CCC2CN(C)C4)CC1c1cc(OC)ccc1-3` (stereo not shown): in the assay on HCV replicon (Hepatitis C virus), the EC50 is 1 to 500 nM.

As to `CN1CC2CCC(C1)N2C(=O)C12CC1c1ccccc1-c1c(C3CCCCC3)c3ccc(C(=O)NS(=O)(=O)N(C)C)cc3n1C2` (stereo not shown), the 50% effective concentration (EC50) in the assay with HCV replicon (Hepatitis C virus) is 1 to 500 nM. On HCV NS5B, the concentration for half-maximal inhibition (IC50) is 1 to 500 nM.

In the assay with HCV replicon (Hepatitis C virus), `CC(C)S(=O)(=O)NC(=O)c1ccc2c(C3CCCCC3)c3n(c2c1)CC1(C(=O)N2C4CCC2CN(C)C4)CC1c1ccccc1-3` (stereo not shown) yielded an EC50 of 1 to 500 nM. This molecule also yielded a half-inhibitory concentration (IC50) against HCV NS5B of 1 to 500 nM.

Regarding `CCC(CC)S(=O)(=O)NC(=O)c1ccc2c(C3CCCCC3)c3n(c2c1)CC1(C(=O)N2C4CCC2CN(C)C4)CC1c1cc(OC)ccc1-3` (stereo not shown), the concentration giving a half-maximal response (EC50) in the assay with HCV replicon (Hepatitis C virus) is over 110 nM.

In the assay with HCV replicon (Hepatitis C virus), `COc1ccc2c(c1)[C@@H]1C[C@]1(C(=O)N1C3CCC1CN(C)C3)Cn1c-2c(C2CCCCC2)c2ccc(C(=O)NS(=O)(=O)CC(C)C)cc21` returned an EC50 of 1 to 500 nM. The same molecule came in with a half-maximal inhibitory concentration (IC50) against HCV NS5B of 1 to 500 nM.

The molecule `COc1ccc2c(c1)C1CC1(C(=O)N1C3CCC1CN(C)C3)Cn1c-2c(C2CCCCC2)c2ccc(C(=O)NS(=O)(=O)CC(F)F)cc21` (stereo not shown) showed a concentration for a half-maximal effect (EC50) with HCV replicon (Hepatitis C virus) of 1 to 500 nM.

`COc1ccc2c(c1)C1CC1(C(=O)N1C3CCC1CN(C)C3)Cn1c-2c(C2CCCCC2)c2ccc(C(=O)NS(=O)(=O)C(F)(F)F)cc21` (stereo not shown) showed an EC50 in the assay on HCV replicon (Hepatitis C virus) of 1 to 500 nM.

For the molecule `COc1ccc2c(c1)C1CC1(C(=O)N1C3CCC1CN(C)C3)Cn1c-2c(C2CCCCC2)c2ccc(C(=O)NS(=O)(=O)CCC(F)(F)F)cc21` (stereo not shown), in the assay on HCV replicon (Hepatitis C virus), the EC50 was 1 to 500 nM. For the same molecule, at HCV NS5B, the half-maximal inhibitory concentration (IC50) lay within 1 to 500 nM.

In turn, `COc1ccc2c(c1)C1CC1(C(=O)N1C3CCC1CN(C)C3)Cn1c-2c(C2CCCCC2)c2ccc(C(=O)NS(=O)(=O)CC(F)(F)F)cc21` (stereo not shown) showed an EC50 with HCV replicon (Hepatitis C virus) of 1 to 500 nM. Moreover, the IC50 against HCV NS5B lay in the range of 1 to 500 nM.

`COc1ccc2c(c1)C1CC1(C(=O)N1C3CCC1CN(C)C3)Cn1c-2c(C2CCCCC2)c2ccc(C(=O)NS(=O)(=O)C3CCC3)cc21` (stereo not shown) [drawing 40] had an EC50 in the assay on HCV replicon (setting [1]) of 1 to 500 nM. Moreover, on HCV NS5B, the IC50 was in the range of 1 to 500 nM.

In turn, `CCC(C)S(=O)(=O)NC(=O)c1ccc2c(C3CCCCC3)c3n(c2c1)CC1(C(=O)N2C4CCC2CN(C)C4)CC1c1cc(OC)ccc1-3` (stereo not shown) [drawing 45] registered an EC50 in the assay with HCV replicon (Hepatitis C virus) of 1 to 500 nM. On HCV NS5B, this molecule registered a 50% inhibitory concentration (IC50) of 1 to 500 nM.

Molecule `COc1ccc2c(c1)C1CC1(C(=O)N1C3CCC1CN(C)C3)Cn1c-2c(C2CCCCC2)c2ccc(C(=O)NS(=O)(=O)C3CCC3)cc21` (stereo not shown) [drawing 51] displayed an EC50 in the assay on HCV replicon (Hepatitis C virus) of 1 to 500 nM.

Take `CCC(C)S(=O)(=O)NC(=O)c1ccc2c(C3CCCCC3)c3n(c2c1)CC1(C(=O)N2C4CCC2CN(C)C4)CC1c1cc(OC)ccc1-3` (stereo not shown) [drawing 52]: the concentration giving a half-maximal response (EC50) with HCV replicon (setting [1]) lay within 1 to 500 nM. For the same molecule, the IC50 at HCV NS5B fell in the range of 1 to 500 nM.
